Legend:
CRPV = assay type: in vivo, cottontail rabbit papillomavirus; details: 0.05% SDS
[1] = tested on: HIV-1-infected SupT1 cells; experiment: Cell-associated HIV-1 infectivity (FIG. 6); assay type: cell-based, human immunodeficiency virus; details: 10 min at 37° C., co-culture with HCLB cells, FIG. 6(a)
Description: (A) SupT1 T lymphocytes (8×10^4)infected 5 days prior with HIV-1 strain IIIB were pelleted and resuspended in new media to remove cell-free virus. After exposure to selected concentrations of each microbicide for 10 min at 37° C., the cells were diluted 1:10 and co-cultured with HCLB cells for 2 h. Following one wash with PBS to remove the infected lymphocytes, the indicator cells were cultured and assayed. Infectivity following exposure is expressed as a percentage relative to the number of β-gal-positive cells in duplicate wells infected with HIV-1 infected SupT1 cells incubated in the absence of a microbicidal compound. Results shown in FIG. 6(a) are the average cell counts for a total of four wells per concentration in two independent experiments. (B) SupT1 T lymphocytes (8×10^4) were incubated with selected concentrations of each microbicide for 10 min at 37° C., and then diluted 1:10 with new media. Following a 2 h incubation period, the cells were assessed for viability. Cell survival after treatment is expressed as the fraction of viable cells relative to the number of mock-exposed cells. Results shown in FIG. 6(b) are the average of two experiments in which triplicate wells for each concentration were assayed.

HPV 11 = experiment: Human papilloma induction: HPV 11 in human foreskin xenografts in athymic mice; assay type: in vivo, human papillomavirus
Description: Stocks of experimentally generated infectious HPV 11 were prepared and represented 10% w/v cell free extracts of virus in PBS. Undiluted aliquots of virus stocks (39 μl ) were mixed with a 40×solution of SDS 1 μl ), incubated at 37° C. for 10 min and immediately used to infect split thickness grafts of newborn human foreskin epithelium. Virus was not subsequently diluted. Control grafts were infected with untreated virus stock. Virus adsorption was for 1 hr at 37° C. […] Grafts were then transplanted beneath the renal capsule of athymic mice. Animals were maintained in isolator bubbles with antibiotic supplemented drinking water in the animal colony of the Hershey Medical Center. Three months following infection, animals were sacrificed, their kidneys were removed, and the xenografts were grossly examined. The remaining organs were examined for any apparent abnormalities and none were found. Portions of each graft were immediately fixed in 10% neutral-buffered formalin and processed by standard histologic techniques for staining with hematoxylin and eosin.
Standard stocks of HPV 11 were used as undiluted virus. These virus stocks normally induce Condylomata in 90-100% of infected xenografts when diluted 1000 fold. […] Infection was then carried out for 1 hr and the grafts subsequently transplanted in vivo. Eight animals (16 kidneys) received grafts infected with SDS treated virus and 9 animals (17 kidneys) received normal virus. […] In the normal infections, 17 of 17 grafts survived and of these, 14 were transformed morphologically upon histologic examination and had typical papillomatous appearance.

BPV-1 = BPV-1 focus assay in C127 mouse cells; assay type: cell-based, bovine papillomavirus; details: for foci/plate Exp. 2 Day 14 / foci/plate Exp. 2 Day 17: 37° C. 10 minutes; for foci/plate Exp. 2 Day 14 / foci/plate Exp. 2 Day 17 / foci/plate Exp. 1 day 12: diluted 1:1000; for foci/plate Exp. 1 day 12: 37° C. 30 minutes
Description: Cell-free stocks of BPV-1 were prepared by extraction (10% w/v) of epidermal bovine warts in phosphate buffered saline (PBS). In order to detect the transforming ability of BPV-1, C127 mouse cells were seeded (3×10^5 cells per flask) into T-25^2 flasks. After 24 hr of growth, subconfluent cells were infected with BPV-1. For the positive controls, stock virus (20 μl) was diluted (1:1) with PBS, incubated at 37° C. for 10 min, diluted […] and then added (100 μl ) into the 5 ml of cell culture medium present on the cells. Cells were refed at 24 hours and subsequently 2 times weekly. The presence of morphologically transformed foci was counted after 2 weeks and then again at 3 weeks.
Virus inactivations were carried out in vitro by addition of concentrated SDS solutions to the virus stocks (20 μl of virus plus 20 μl of detergent) and subsequent incubation at 37° C. for 10 or 30 min as indicated. Following inactivation, virus was diluted 1000 fold to lower the detergent concentration and the preparations were immediately used for infection as above.
Although SDS could effectively reduce HSV-2 infectivity, it remained possible that this destruction was mediated by envelope removal. Because papillomaviruses are non-enveloped, the possibility remained that SDS would fail to inactivate these viruses. We utilized BPV-1 as a prototype PV because of its ability to rapidly (within 2 weeks) form multi-layered transformed foci in mouse fibroblasts in an in vitro assay. Table 3 describes results of two separate experiments in which stocks of BPV-1 were incubated at 37° C. with various concentrations of SDS (5% to 5×10^−4%) for either 10 or 30 minutes, diluted to lower the SDS concentration (to avoid cell toxicity) and then used to infect C127 cells. […] Table 4 lists several other commercially available detergents that were tested for possible inactivation of BPV-1. None of these detergents inactivated the morphologic transforming properties of the BPV-1.

[2] = 0.025 % SDS during treatment (as printed in Table 5), grafts harvested after three months
[3] = undiluted HPV 11 treated with 0.05% SDS, 37° C. 10 min
[4] = 2.5 × 10^−3 % SDS during treatment
[5] = 5 × 10^−2 % SDS during treatment
[6] = 5 × 10^−3 % SDS during treatment
[7] = 5 × 10^−4 % SDS during treatment

Structure (SMILES): CCCCCCCCCCCCOS(=O)(=O)[O-].[Na+] [SDS, Sodium dodecyl sulfate]
- development of papillomas at the six sites that received SDS treated preparations (FIG. 1b) (CRPV; 10^−1 dilution of virus stock, 10 min, 37° C., rabbits): delayed in the development of papillomas
- inactivation of CRPV (GMD of lesions, FIG. 1a) (CRPV; 10^−1 dilution of virus stock, 10 min, 37° C., rabbits, days 18-50): substantially inactivated
- sites inoculated with treated virus in which papillomas failed to develop (CRPV; 10^−2 dilution of CRPV stock, 37° C. 10 min, five rabbits, 3-6 weeks): 8 of 10
- cell-associated infectivity of HIV-1-infected SupT1 cells [1]: can reduce the cell-associated infectivity
- surviving grafts/ transplanted grafts (HPV 11; [2]): 13/16
- total papillomas (HPV 11; [2]): 0
- prevention of HPV 11 infection of xenografts (HPV 11; [3]): effectively prevented virus infection
- xenografts showing viable tissue at harvest (normal, viable differentiating human epithelium) (HPV 11; [3]): 13 out of 16
- foci/plate Exp. 2 Day 14 (BPV-1; [4]): 273
- foci/plate Exp. 2 Day 17 (BPV-1; [4]): 162
- foci/plate Exp. 1 day 12 (BPV-1; 5 % SDS during treatment): 0
- foci/plate Exp. 1 day 12 (BPV-1; 5 × 10^−1 % SDS during treatment): 0
- foci/plate Exp. 2 Day 14 (BPV-1; [5]): 0
- foci/plate Exp. 2 Day 17 (BPV-1; [5]): 0
- foci/plate Exp. 1 day 12 (BPV-1; [5]): 0
- foci/plate Exp. 2 Day 14 (BPV-1; [6]): 271
- foci/plate Exp. 2 Day 17 (BPV-1; [6]): 150
- foci/plate Exp. 1 day 12 (BPV-1; [6]): 0
- foci/plate Exp. 2 Day 14 (BPV-1; [7]): 229
- foci/plate Exp. 2 Day 17 (BPV-1; [7]): 151
- relative potency in dose response curves (BPV-1; compared with other alkyl sulfate group members): most potent
- inactivation of BPV-1 morphologic transformation of C127 cells (BPV-1; detergent 1% final concentration, 37° C., 10 min): completely eliminated virus foci
- concentration (as low as) that totally inactivates BPV-1 transforming ability (BPV-1; treatment of the virus at 37° C. for 10 minutes): 0.05%
- concentration (as low as) that totally inactivates BPV-1 transforming ability (BPV-1; treatment of the virus at 37° C. for 30 minutes): 0.005%
